Results taken from ChEMBL document CHEMBL3885881, “DrugMatrix”.

Species on record: Rattus norvegicus
Test: DrugMatrix - Regimen: Daily Repeat
Type: toxicity, organism-based, Sprague-Dawley
Set-up: regimen Daily Repeat, gender Male, age 6-8 weeks
Conditions: in vivo, po, […], route oral GAVAGE; for ABSOLUTE BASOPHIL / ABSOLUTE EOSINOPHIL / ABSOLUTE LYMPHOCYTE / ABSOLUTE MONOCYTE / ABSOLUTE SEGMENTED NEUTROPHIL / BASOPHIL / EOSINOPHIL / ERYTHROCYTE COUNT / HEMATOCRIT / HEMOGLOBIN / LEUKOCYTE COUNT / LYMPHOCYTE / MEAN CORPUSCULAR HEMOGLOBIN / MEAN CORPUSCULAR HEMOGLOBIN CONCENTRATION / MEAN CORPUSCULAR VOLUME / MONOCYTE / NEUTROPHIL / NUCLEATED RED BLOOD CELLS / PLATELET COUNT: tissue Blood; for ALANINE AMINOTRANSFERASE / ALBUMIN / ALKALINE PHOSPHATASE / ASPARTATE AMINOTRANSFERASE / BLOOD UREA NITROGEN / CARBON DIOXIDE / CHLORIDE / CHOLESTEROL / CREATINE PHOSPHOKINASE / CREATININE / GLUCOSE / LACTATE DEHYDROGENASE / LIPASE / PHOSPHORUS / POTASSIUM / SODIUM / TOTAL BILIRUBIN / TOTAL PROTEIN / URIC ACID: tissue Plasma
[1] = 400 mg/kg, dose level Low, time 7 day
[2] = 1175 mg/kg, 72 h, dose level High, time 3 day
[3] = 1175 mg/kg, dose level High, time 7 day

In the case of ClC(Cl)(Cl)Cl [CARBON TETRACHLORIDE], the “ABSOLUTE BASOPHIL” value [1] is reported as 0 CELLS/uL, the “ABSOLUTE EOSINOPHIL” value [1] is reported as 0 CELLS/uL and the “ABSOLUTE LYMPHOCYTE” value [1] is reported as 12903.17 CELLS/uL. The “ABSOLUTE MONOCYTE” value [1] was 339.83 CELLS/uL, the “ABSOLUTE SEGMENTED NEUTROPHIL” value [1] was 990.33 CELLS/uL and the BASOPHIL [1] was 0%. The EOSINOPHIL [1] was 0%, the “ERYTHROCYTE COUNT” value [1] was 6.32 x10E6/uL and the HEMATOCRIT [1] was 37.03%. For the same compound, the HEMOGLOBIN [1] was 14.83 G/DL, the “LEUKOCYTE COUNT” value [1] was 14.23 x10E3/uL and the LYMPHOCYTE [1] was 90.33%. For the same compound, the “MEAN CORPUSCULAR HEMOGLOBIN” value [1] was 23.5 pg, the “MEAN CORPUSCULAR HEMOGLOBIN CONCENTRATION” value [1] was 40.08 G/DL and the “MEAN CORPUSCULAR VOLUME” value [1] was 58.68 fL. For the same compound, the MONOCYTE [1] was 2.17%, the NEUTROPHIL [1] was 7.5% and the “NUCLEATED RED BLOOD CELLS” value [1] was 0 /100WBC. The “PLATELET COUNT” value [1] was 869.5 x10E3/uL, the “ALANINE AMINOTRANSFERASE” value [1] was 295.83 u/L and the ALBUMIN [1] was 4.12 G/DL. The “ALKALINE PHOSPHATASE” value [1] was 598 u/L, the “ASPARTATE AMINOTRANSFERASE” value [1] was 469.33 u/L and the “BLOOD UREA NITROGEN” value [1] was 15.17 mg/dL. The “CARBON DIOXIDE” value [1] was 29 mmol/L, the CHLORIDE [1] was 99.67 MEQ/L and the CHOLESTEROL [1] was 34.17 mg/dL. The “CREATINE PHOSPHOKINASE” value [1] was 258.83 u/L, the CREATININE [1] was 0.27 mg/dL and the GLUCOSE [1] was 129 mg/dL. For the same compound, the “LACTATE DEHYDROGENASE” value [1] was 176.83 u/L, the LIPASE [1] was 10 u/L and the PHOSPHORUS [1] was 9.22 mg/dL. The POTASSIUM [1] was 5.35 MEQ/L, the SODIUM [1] was 142.35 MEQ/L and the “TOTAL BILIRUBIN” value [1] was 0.22 mg/dL. The “TOTAL PROTEIN” value [1] was 5.88 G/DL, the “URIC ACID” value [1] was 0.82 mg/dL and the “ABSOLUTE BASOPHIL” value [2] was 0 CELLS/uL. The “ABSOLUTE EOSINOPHIL” value [2] was 29 CELLS/uL, the “ABSOLUTE LYMPHOCYTE” value [2] was 12136.5 CELLS/uL and the “ABSOLUTE MONOCYTE” value [2] was 331.83 CELLS/uL. For the same compound, the “ABSOLUTE SEGMENTED NEUTROPHIL” value [2] was 869.33 CELLS/uL, the BASOPHIL [2] was 0% and the EOSINOPHIL [2] was 0.33%. For the same compound, the “ERYTHROCYTE COUNT” value [2] was 6.02 x10E6/uL, the HEMATOCRIT [2] was 37.65% and the HEMOGLOBIN [2] was 13.88 G/DL. The “LEUKOCYTE COUNT” value [2] was 13.37 x10E3/uL, the LYMPHOCYTE [2] was 90.67% and the “MEAN CORPUSCULAR HEMOGLOBIN” value [2] was 23.13 pg. The “MEAN CORPUSCULAR HEMOGLOBIN CONCENTRATION” value [2] was 36.9 G/DL, the “MEAN CORPUSCULAR VOLUME” value [2] was 62.75 fL and the MONOCYTE [2] was 2.5%. The NEUTROPHIL [2] was 6.5%, the “NUCLEATED RED BLOOD CELLS” value [2] was 0.17 /100WBC and the “PLATELET COUNT” value [2] was 800.67 x10E3/uL. For the same compound, the “ALANINE AMINOTRANSFERASE” value [2] was 129 u/L, the ALBUMIN [2] was 3.92 G/DL and the “ALKALINE PHOSPHATASE” value [2] was 531.5 u/L. The “ASPARTATE AMINOTRANSFERASE” value [2] was 232.83 u/L, the “BLOOD UREA NITROGEN” value [2] was 19.17 mg/dL and the “CARBON DIOXIDE” value [2] was 31.33 mmol/L. The CHLORIDE [2] was 101.5 MEQ/L, the CHOLESTEROL [2] was 41.67 mg/dL and the “CREATINE PHOSPHOKINASE” value [2] was 258.5 u/L. The CREATININE [2] was 0.28 mg/dL, the GLUCOSE [2] was 144.83 mg/dL and the “LACTATE DEHYDROGENASE” value [2] was 110 u/L. For the same compound, the LIPASE [2] was 10.5 u/L, the PHOSPHORUS [2] was 9.55 mg/dL and the POTASSIUM [2] was 5.46 MEQ/L. The SODIUM [2] was 145.42 MEQ/L, the “TOTAL BILIRUBIN” value [2] was 0.1 mg/dL and the “TOTAL PROTEIN” value [2] was 5.68 G/DL. For the same compound, the “URIC ACID” value [2] was 0.45 mg/dL, the “ABSOLUTE BASOPHIL” value [3] was 0 CELLS/uL and the “ABSOLUTE EOSINOPHIL” value [3] was 0 CELLS/uL. The “ABSOLUTE LYMPHOCYTE” value [3] was 11238.67 CELLS/uL, the “ABSOLUTE MONOCYTE” value [3] was 252 CELLS/uL and the “ABSOLUTE SEGMENTED NEUTROPHIL” value [3] was 1109.33 CELLS/uL. The BASOPHIL [3] was 0%, the EOSINOPHIL [3] was 0% and the “ERYTHROCYTE COUNT” value [3] was 6.55 x10E6/uL. The HEMATOCRIT [3] was 37.82%, the HEMOGLOBIN [3] was 14.68 G/DL and the “LEUKOCYTE COUNT” value [3] was 12.6 x10E3/uL. The LYMPHOCYTE [3] was 89%, the “MEAN CORPUSCULAR HEMOGLOBIN” value [3] was 22.53 pg and the “MEAN CORPUSCULAR HEMOGLOBIN CONCENTRATION” value [3] was 38.87 G/DL. The “MEAN CORPUSCULAR VOLUME” value [3] was 57.97 fL, the MONOCYTE [3] was 2% and the NEUTROPHIL [3] was 9%. For the same compound, the “NUCLEATED RED BLOOD CELLS” value [3] was 0 /100WBC, the “PLATELET COUNT” value [3] was 761 x10E3/uL and the “ALANINE AMINOTRANSFERASE” value [3] was 302 u/L. For the same compound, the ALBUMIN [3] was 3.77 G/DL, the “ALKALINE PHOSPHATASE” value [3] was 779.83 u/L and the “ASPARTATE AMINOTRANSFERASE” value [3] was 589.83 u/L. For the same compound, the “BLOOD UREA NITROGEN” value [3] was 17.67 mg/dL, the “CARBON DIOXIDE” value [3] was 30.5 mmol/L and the CHLORIDE [3] was 98.83 MEQ/L. The CHOLESTEROL [3] was 26.5 mg/dL, the “CREATINE PHOSPHOKINASE” value [3] was 269.67 u/L and the CREATININE [3] was 0.24 mg/dL. The GLUCOSE [3] was 122.83 mg/dL, the “LACTATE DEHYDROGENASE” value [3] was 182.5 u/L and the LIPASE [3] was 9.17 u/L. It also gave a PHOSPHORUS [3] of 9.22 mg/dL, a POTASSIUM [3] of 5.74 MEQ/L and an SODIUM [3] of 142.6 MEQ/L. For the same compound, the “TOTAL BILIRUBIN” value [3] was 0.22 mg/dL, the “TOTAL PROTEIN” value [3] was 5.7 G/DL and the “URIC ACID” value [3] was 0.47 mg/dL.
